Results: US12133900B2, “Synthesis and composition of amino acid linking groups conjugated to compounds used for the targeted imaging of tumors” (Purdue Research Foundation, priority 2013, dated 2024)

Columns and labels:
FR-alpha and beta = conditions: cited from earlier work
[1] = test system: FR-positive IGROV tumor xenografts; assay: Imaging and biodistribution, IGROV ovarian xenograft; assay type: in vivo, mice; conditions: 2 nmol, 2 h
Method: (§1) Seven-week-old female nu/nu mice were inoculated subcutaneously with KB (1.0×10^6/mouse in RPM11640 medium), IGROV (5.0×10^6/mouse in 50% high concentrated matrigel+RPM11640 medium), SKOV3 (5.0×10^6/mouse in RPM11640 medium), OVCAR3 (5.0×10^6/mouse in RPM11640 medium), MDA-MB231 (1.0×10^6/mouse in RPM11640 medium), M109 (1.0×10^6/mouse in RPM11640 medium) or A549 cells (2.0×10^6/mouse in RPM11640 medium) on the shoulder. Growth of the tumors was measured in perpendicular directions every 2 days using a caliper (body weights were monitored on the same schedule), and the volumes of the tumors were calculated as 0.5×L×W^2 (L=longest axis and W=axis perpendicular to L in millimeters). Once tumors reached approximately 300-400 mm3 in volume, animals (3-5 mice/group) were intravenously injected with the compound of interest in PBS (for dose escalation in KB tumor model: 0.3-90 nmol, for time dependent in KB tumor model: 2 or 10 nmol, and for general whole body imaging and biodistribution for all tumor models: 2 nmol, in 100 μL in PBS per mouse). For whole body imaging and biodistribution studies, animals were euthanized 2 hours after administration of the compound of interest by CO2 asphyxiation. For time dependent studies, animals were imaged under anesthesia using isoflurane. Whole body imaging (intact tumor) experiments was then performed using a Caliper IVIS Lumina II Imaging Station with Living Image 4.0 software (PerkinElmer Inc, MA).
(§2) Following whole body imaging, animals were dissected and selected tissues (heart, lung, liver, spleen, kidneys, stomach, small intestine, large intestine, muscle, skin, and tumor) were analyzed for fluorescence activity using IVIS imager using same settings as in whole body imaging.

[2] = test system: folate receptor negative A549 tumor xenografts; assay: Whole body imaging and biodistribution, folate receptor-negative A549 tumor xenografts; assay type: in vivo, mice; conditions: for specificity for folate receptor (conclusion): FR-negative A549 xenografts
Method: Seven-week-old female nu/nu mice were inoculated subcutaneously with A549 cells (1.0×10^6/mouse in RPM11640 medium) on the shoulder. Growth of the tumors was measured in perpendicular directions every 2 days using a caliper (body weights were monitored on the same schedule), and the volumes of the tumors were calculated as 0.5×L×W^2 (L=longest axis and W=axis perpendicular to L in millimeters). Once tumors reached between 400 and 500 mm3 in volume, animals (6 mice/group) were intravenously injected with 10 nmol of OTL-0038 in phosphate buffered saline (100 μL). After 2.5 h, animals were sacrificed by CO2 asphyxiation. Whole body imaging (intact tumor) experiments were then performed using a Caliper IVIS Lumina II Imaging Station with Living Image 4.0 software (PerkinElmer Inc, MA). Settings for imaging:—lamp level: medium; excitation: 745 nm; emission: ICG (indocyanine green); epi illumination; binning: 4 (M), FOV=12.5; f-stop=2; acquisition time=1 s.
Following whole body imaging, animals were dissected and selected tissues (heart, lung, liver, spleen, kidneys, stomach, small intestine, large intestine, muscle, skin, tumor) were analyzed for fluorescence activity using IVIS imager as before. Settings for imaging:—lamp level: medium; excitation: 745 nm; emission: ICG; epi illumination; binning: 4 (M), FOV=12.5; f-stop=2; acquisition time=1 s.
as §1, §2

FR-positive M109 tumors = assay: Imaging and biodistribution, M109 metastatic model; assay type: in vivo, mice; conditions: 2 nmol, 2 h
Method: as §1, with “For whole body imaging and biodistribution studies, animals were euthanized 2 hours after administration of the compound of interest by CO2 asphyxiation. For time dependent studies, animals were imaged under anesthesia using isoflurane. Whole body imaging (intact tumor) experiments was then performed using a Caliper IVIS Lumina II Imaging Station with Living Image 4.0 software (PerkinElmer Inc, MA).” left out
as §2

[3] = test system: FR-positive IGROV orthotopic ovary tumor; assay: Imaging and biodistribution, IGROV ovarian orthotopic model; assay type: in vivo, mice; conditions: 2 nmol, 2 h
Method: Ovarian cancer was developed through surgical implantation of ovarian cancer cell lines near the ovarian bursa of the mouse. Seven-week-old female athymic nude mice were given 1-5% isoflurane for anesthesia and subcutaneous injection of 5 mg/kg meloxicam preoperatively for analgesia. The mice were placed dorsal side up and washed above the right ovary (just lateral to the epaxial muscles and ˜1.15 cm caudal to the rib cage) with a chlorhexidine scrub to ensure a sterile area for incision. After an insertion was made using scalpel through the skin, the peritoneal lining was lifted to make a small incision using a scissor and widened using a forceps. The ovarian fat pad was carefully lifted out and placed on a wetted gauze pad adjacent to the incision. Ovarian cancer cells (50,000 cells in 5 μL) were injected between the bursa and the ovary using a 30 gage needle. After placing the ovarian fat pad back into the body cavity, the body wall was closed using 3-0 or 4-0 vicryl and the skin was closed using staples.
as §2

[4] = test system: FR-positive SKOV3 tumor xenografts; assay: Imaging and biodistribution, SKOV3 ovarian xenograft; assay type: in vivo, mice; conditions: 2 nmol, 2 h
Method: as §1, §2

[5] = test system: FR-positive MDA-MB 231 orthotopic tumors; assay: Imaging and biodistribution, MDA-MB 231 orthotopic model; assay type: in vivo, mice; conditions: 2 nmol, 2 h
Method: Breast cancer was developed by implanting breast cancer cells in the […] fat pad of the mouse.
as §2

CC1(C)C(/C=C/C2=C(Oc3ccc(C[C@H](NC(=O)c4ccc(NCc5cnc6nc(N)[nH]c(=O)c6n5)cc4)C(=O)[O-])cc3)C(=C/C=C3\N(CCCCS(=O)(=O)[O-])c4ccc(S(=O)(=O)[O-])cc4C3(C)C)/CCC2)=[N+](CCCCS(=O)(=O)[O-])c2ccc(S(=O)(=O)[O-])cc21.[H+].[H+].[H+].[H+] [OTL-0038, Pte-Tyr-S0456]
affinity for FR-alpha versus beta (FR-alpha and beta): binds to FR-alpha and beta with same affinity | ex-vivo tissue biodistribution [1]: highest fluorescence intensities were observed in FR-positive tumors and kidneys | tumor-to-normal tissue ratios [1]: excellent tumor-to-normal tissue ratios | whole body imaging: accumulation [1]: accumulated mainly in the FR-positive IGROV tumor xenografts | tissue biodistribution ([2]; 2 nmol i.v., 2 h): no fluorescence was observed in FR-negative tumors | whole body imaging: accumulation ([2]; 2 nmol i.v., 2 h): did not accumulated in the FR-negative tumors | whole body imaging: accumulation ([2]; 10 nmol i.v., 2.5 h): did not accumulated in the folate receptor negative tumors | specificity for folate receptor (conclusion) [2]: highly specific for folate receptor | specificity for folate receptor (conclusion) ([2]; listed as OTL38): highly specific for FR | tumor-to-normal tissue ratios (FR-positive M109 tumors): excellent tumor-to-normal tissue ratios | whole body imaging: accumulation (FR-positive M109 tumors): accumulated mainly in the FR-positive M109 tumors metastasize to the liver, lung and spleen | accumulation (tissue biodistribution) [3]: accumulated mainly in the FR-positive IGROV orthotopic ovary tumor | tumor-to-normal tissue ratios [3]: excellent tumor-to-normal tissue ratios | ex-vivo tissue biodistribution [4]: highest fluorescence intensities were observed in FR-positive tumors and kidneys | tumor-to-normal tissue ratios [4]: excellent tumor-to-normal tissue ratios | whole body imaging: accumulation [4]: accumulated mainly in the FR-positive SKOV3 tumor xenografts | ex-vivo tissue biodistribution [5]: highest fluorescence intensities were observed in FR-positive tumors and kidneys | tumor-to-normal tissue ratios [5]: excellent tumor-to-normal tissue ratios | whole body imaging: accumulation [5]: accumulated mainly in the FR-positive MDA-MB 231 orthotopic tumors
